Assay results: patent US11596650B2, “Composition and method for the treatment of type 2 diabetes” (Vector Vitale IP LLC, priority 2019, dated 2023)

Assay: Accumulation of metals in liver and kidney tissues, intraperitoneal administration to intact rats
Type: in vivo, rat
Procedure: Animals are placed in cages, 4 per cage, with free access to food/water. […] After the last injection, a half of the animals are maintained on hunger (for 12 hours) with free access to water. Upon expiration of this time period, the animals are taken out of the experiment. The second half of the animals continues to have free access to food/water for a further 7 days. On day 6 after the last injection, the animals are maintained on hunger (for 12 hours) with free access to water. Upon expiration of this time period, the animals are taken out of the experiment.
The total kidney, liver and muscle homogenates were prepared as follows. Organ excision and homogenization were carried out at a temperature of 1-4° C. […] The volume of the used buffer in ml was 5 times larger than the mass of isolated organs in grams. The isolated liver was perfused with chilled saline (0.9% NaCl) via the portal vein using a syringe. The minced liver was transferred to a homogenizer with a finely ground Teflon pestle and homogenized in chilled buffer. An isolated pair of kidneys was perfused with chilled saline, released from adipose tissue and minced with scissors. The minced tissue was transferred to a homogenizer with a finely ground Teflon pestle and homogenized in chilled buffer. The total kidney and liver homogenates were centrifuged at 600 g for 15 minutes. […]

With `CC(=O)[O-].CC(=O)[O-].[Zn+2]` [Zn acetate, Zinc acetate] as the compound, how does the “Zinc in the kidney and liver tissues” value (day 1 and day 7 after discontinuation of the substances) read?
Its value is “significantly increased”.

What about the “All other analyzed metals (manganese and copper) in kidney and liver tissues” value (intact rats, intraperitoneal) of the same compound?
Its value is “within the same concentrations as in the control group”.
